# According to ChEMBL document CHEMBL6087447, “Impact of Linker Composition on VHL PROTAC Cell Permeability” (J Med Chem, 2025):
# Experiment: Permeability of the compound in PBS buffer at pH 7.4 incubated for 16 hrs by LC-MS/MS based PAMPA assay
# Type: ADME
# Conditions: read-out: permeability
row,SMILES,Papp at 16 h
1,Cc1ncsc1-c1ccc(CNC(=O)[C@@H]2C[C@@H](O)CN2C(=O)[C@@H](NC(=O)CN(C)CCCCCCOc2cnc3c(C4CCN(C(=O)c5ccc(OC(F)(F)F)cc5)CC4)ncnc3c2)C(C)(C)C)cc1,6.67 ×10⁻⁶ cm/s
2,Cc1ncsc1-c1ccc(CNC(=O)[C@@H]2C[C@@H](O)CN2C(=O)[C@@H](NC(=O)CCOCCOCCOc2cnc3c(C4CCN(C(=O)c5ccc(OC(F)(F)F)cc5)CC4)ncnc3c2)C(C)(C)C)cc1,5.42 ×10⁻⁶ cm/s
3,Cc1ncsc1-c1ccc(CNC(=O)[C@@H]2C[C@@H](O)CN2C(=O)[C@@H](NC(=O)Cc2ccc(OCCOc3cnc4c(C5CCN(C(=O)c6ccc(OC(F)(F)F)cc6)CC5)ncnc4c3)cn2)C(C)(C)C)cc1,7.28 ×10⁻⁶ cm/s
4,Cc1ncsc1-c1ccc(CNC(=O)[C@@H]2C[C@@H](O)CN2C(=O)[C@@H](NC(=O)Cc2ccc(OCCOc3cnc4c(C5CCN(C(=O)c6ccc(OC(F)(F)F)cc6)CC5)ncnc4c3)cc2)C(C)(C)C)cc1,7.56 ×10⁻⁶ cm/s
5,Cc1ncsc1-c1ccc(CNC(=O)[C@@H]2C[C@@H](O)CN2C(=O)[C@@H](NC(=O)COCc2cn(CCOc3cnc4c(C5CCN(C(=O)c6ccc(OC(F)(F)F)cc6)CC5)ncnc4c3)nn2)C(C)(C)C)cc1,7.94 ×10⁻⁶ cm/s
6,Cc1ncsc1-c1ccc(CNC(=O)[C@@H]2C[C@@H](O)CN2C(=O)[C@@H](NC(=O)CCOCCNC(=O)COc2cnc3c(C4CCN(C(=O)c5ccc(OC(F)(F)F)cc5)CC4)ncnc3c2)C(C)(C)C)cc1,6.21 ×10⁻⁶ cm/s
7,Cc1ncsc1-c1ccc(CNC(=O)[C@@H]2C[C@@H](O)CN2C(=O)[C@@H](NC(=O)CCCCCCCCOc2cnc3c(C4CCN(C(=O)c5ccc(OC(F)(F)F)cc5)CC4)ncnc3c2)C(C)(C)C)cc1,8.29 ×10⁻⁶ cm/s
8,Cc1ncsc1-c1ccc(CNC(=O)[C@@H]2C[C@@H](O)CN2C(=O)[C@@H](NC(=O)CN2CCC(CCCOc3cnc4c(C5CCN(C(=O)c6ccc(OC(F)(F)F)cc6)CC5)ncnc4c3)CC2)C(C)(C)C)cc1,6.9 ×10⁻⁶ cm/s
9,Cc1ncsc1-c1ccc(CNC(=O)[C@@H]2C[C@@H](O)CN2C(=O)[C@@H](NC(=O)COCCOCCNC(=O)COc2cnc3c(C4CCN(C(=O)c5ccc(OC(F)(F)F)cc5)CC4)ncnc3c2)C(C)(C)C)cc1,6.3 ×10⁻⁶ cm/s
